The source made the active and inactive calls.
Tests used:
[1] = molecular target: Casein kinase I isoform epsilon (Homo sapiens, UniProt P49674)
[2] = molecular target: Serine/threonine-protein kinase 16 (Homo sapiens, UniProt O75716)
Activin receptor type-2B = Activin receptor type-2B (Homo sapiens, UniProt Q13705)
[3] = molecular target: T1, Signal recognition particle receptor subunit alpha (Homo sapiens, UniProt P08240)
T1 sequence (P08240 whole entry): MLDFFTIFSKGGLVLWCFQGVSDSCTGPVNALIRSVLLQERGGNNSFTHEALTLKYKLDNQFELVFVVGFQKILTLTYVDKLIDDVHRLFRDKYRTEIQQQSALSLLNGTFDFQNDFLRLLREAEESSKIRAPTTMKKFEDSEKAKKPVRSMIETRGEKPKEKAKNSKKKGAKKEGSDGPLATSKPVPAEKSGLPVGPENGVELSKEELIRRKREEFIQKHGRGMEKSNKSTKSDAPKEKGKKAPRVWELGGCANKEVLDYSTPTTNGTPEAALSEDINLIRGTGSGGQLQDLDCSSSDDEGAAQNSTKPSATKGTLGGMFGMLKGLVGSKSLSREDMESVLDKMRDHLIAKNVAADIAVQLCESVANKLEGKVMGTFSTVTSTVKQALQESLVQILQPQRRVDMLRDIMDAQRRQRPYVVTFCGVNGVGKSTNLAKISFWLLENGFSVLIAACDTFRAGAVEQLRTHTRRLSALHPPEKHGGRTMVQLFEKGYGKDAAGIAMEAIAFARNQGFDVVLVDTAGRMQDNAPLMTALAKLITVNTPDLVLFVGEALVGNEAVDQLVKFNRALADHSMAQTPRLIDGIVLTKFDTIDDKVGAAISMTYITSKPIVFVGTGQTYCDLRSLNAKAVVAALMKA

[4] = molecular target: T2, Serine/threonine-protein kinase Nek9 (Homo sapiens, UniProt Q8TD19)
T2 sequence (Q8TD19 whole entry): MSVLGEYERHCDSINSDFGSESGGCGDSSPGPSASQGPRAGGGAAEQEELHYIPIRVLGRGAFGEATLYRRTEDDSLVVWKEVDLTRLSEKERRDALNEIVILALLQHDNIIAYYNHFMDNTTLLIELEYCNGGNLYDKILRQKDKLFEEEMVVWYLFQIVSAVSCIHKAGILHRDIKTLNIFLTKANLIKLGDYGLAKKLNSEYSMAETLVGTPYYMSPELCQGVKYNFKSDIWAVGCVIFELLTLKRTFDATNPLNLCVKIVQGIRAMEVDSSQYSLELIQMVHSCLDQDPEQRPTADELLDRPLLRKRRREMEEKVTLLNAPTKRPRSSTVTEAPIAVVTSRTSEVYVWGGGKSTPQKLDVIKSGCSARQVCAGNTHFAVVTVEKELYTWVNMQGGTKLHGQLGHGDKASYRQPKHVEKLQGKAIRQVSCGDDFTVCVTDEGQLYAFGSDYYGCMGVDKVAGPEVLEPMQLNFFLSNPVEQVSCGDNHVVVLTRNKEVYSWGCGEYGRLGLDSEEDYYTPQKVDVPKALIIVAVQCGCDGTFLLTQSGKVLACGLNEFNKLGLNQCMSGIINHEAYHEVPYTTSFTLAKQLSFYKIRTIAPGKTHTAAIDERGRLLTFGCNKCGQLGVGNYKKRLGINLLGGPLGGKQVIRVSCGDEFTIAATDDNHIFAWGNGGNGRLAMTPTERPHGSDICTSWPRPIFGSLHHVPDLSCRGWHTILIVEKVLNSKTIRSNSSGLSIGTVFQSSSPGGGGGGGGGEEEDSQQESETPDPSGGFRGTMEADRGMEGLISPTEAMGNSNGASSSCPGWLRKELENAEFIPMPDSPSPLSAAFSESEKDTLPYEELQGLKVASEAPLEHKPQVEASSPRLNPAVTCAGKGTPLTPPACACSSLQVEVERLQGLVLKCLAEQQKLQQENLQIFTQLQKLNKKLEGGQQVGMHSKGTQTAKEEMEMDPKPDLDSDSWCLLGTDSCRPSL

[5] = molecular target: Serine/threonine-protein kinase N2 (Homo sapiens, UniProt Q16513)
Chain of Serine/threonine-protein kinase N2 (Q16513 whole entry): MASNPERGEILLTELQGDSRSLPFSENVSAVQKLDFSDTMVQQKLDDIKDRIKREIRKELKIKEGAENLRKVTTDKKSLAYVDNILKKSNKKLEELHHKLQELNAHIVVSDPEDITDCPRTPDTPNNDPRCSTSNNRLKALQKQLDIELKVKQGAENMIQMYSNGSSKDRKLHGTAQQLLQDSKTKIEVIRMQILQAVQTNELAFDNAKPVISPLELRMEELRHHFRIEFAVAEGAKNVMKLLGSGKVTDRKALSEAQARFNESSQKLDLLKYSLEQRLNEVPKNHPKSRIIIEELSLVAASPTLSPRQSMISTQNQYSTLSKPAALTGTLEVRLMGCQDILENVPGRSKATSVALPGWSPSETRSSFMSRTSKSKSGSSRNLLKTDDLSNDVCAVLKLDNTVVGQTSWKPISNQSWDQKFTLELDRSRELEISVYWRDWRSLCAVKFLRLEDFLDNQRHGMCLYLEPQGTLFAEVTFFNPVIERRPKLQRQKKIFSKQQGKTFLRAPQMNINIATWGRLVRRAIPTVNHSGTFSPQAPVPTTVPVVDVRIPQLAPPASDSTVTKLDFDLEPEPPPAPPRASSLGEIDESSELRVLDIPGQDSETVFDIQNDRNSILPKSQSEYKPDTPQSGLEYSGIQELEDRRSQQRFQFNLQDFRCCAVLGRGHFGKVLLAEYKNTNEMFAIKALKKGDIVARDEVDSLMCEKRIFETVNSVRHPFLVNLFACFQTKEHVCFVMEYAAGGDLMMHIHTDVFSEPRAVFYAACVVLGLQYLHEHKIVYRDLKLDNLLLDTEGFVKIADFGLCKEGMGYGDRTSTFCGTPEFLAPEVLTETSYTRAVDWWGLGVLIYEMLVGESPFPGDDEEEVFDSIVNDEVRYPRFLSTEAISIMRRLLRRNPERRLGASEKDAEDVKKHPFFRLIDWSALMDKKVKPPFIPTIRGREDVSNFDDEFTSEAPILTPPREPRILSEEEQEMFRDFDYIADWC

Scaffold protein ILK = molecular target: T3, Scaffold protein ILK (Homo sapiens, UniProt Q13418)
T3 sequence (Q13418 whole entry): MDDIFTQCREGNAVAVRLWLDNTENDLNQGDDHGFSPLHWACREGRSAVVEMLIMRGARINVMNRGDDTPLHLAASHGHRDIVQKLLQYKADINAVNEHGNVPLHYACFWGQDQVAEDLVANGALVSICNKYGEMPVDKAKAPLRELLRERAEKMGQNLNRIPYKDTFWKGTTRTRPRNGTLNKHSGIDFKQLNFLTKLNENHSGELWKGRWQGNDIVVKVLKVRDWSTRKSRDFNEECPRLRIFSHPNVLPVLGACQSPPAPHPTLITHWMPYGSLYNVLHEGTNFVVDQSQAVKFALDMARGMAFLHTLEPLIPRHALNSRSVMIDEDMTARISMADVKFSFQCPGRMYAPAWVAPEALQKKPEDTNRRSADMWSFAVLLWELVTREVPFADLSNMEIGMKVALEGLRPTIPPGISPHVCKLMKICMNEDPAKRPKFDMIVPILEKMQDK

[6] = molecular target: T4, Phosphatidylinositol 5-phosphate 4-kinase type-2 alpha (Homo sapiens, UniProt P48426)
T4 sequence (P48426 whole entry): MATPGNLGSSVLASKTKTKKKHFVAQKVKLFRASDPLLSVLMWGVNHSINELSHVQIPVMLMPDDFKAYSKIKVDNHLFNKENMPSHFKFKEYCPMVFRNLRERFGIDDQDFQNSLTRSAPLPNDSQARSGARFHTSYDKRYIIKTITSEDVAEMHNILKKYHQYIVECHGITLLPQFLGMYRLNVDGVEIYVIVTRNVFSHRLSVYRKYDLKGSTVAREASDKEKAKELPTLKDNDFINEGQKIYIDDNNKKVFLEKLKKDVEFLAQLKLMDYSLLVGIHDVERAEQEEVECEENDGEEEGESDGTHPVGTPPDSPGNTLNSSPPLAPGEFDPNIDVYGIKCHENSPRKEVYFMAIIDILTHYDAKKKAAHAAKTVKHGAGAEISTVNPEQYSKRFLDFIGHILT

[7] = molecular target: Serine/threonine-protein kinase pim-1 (Homo sapiens, UniProt P11309)
Chain of Serine/threonine-protein kinase pim-1 (P11309 whole entry): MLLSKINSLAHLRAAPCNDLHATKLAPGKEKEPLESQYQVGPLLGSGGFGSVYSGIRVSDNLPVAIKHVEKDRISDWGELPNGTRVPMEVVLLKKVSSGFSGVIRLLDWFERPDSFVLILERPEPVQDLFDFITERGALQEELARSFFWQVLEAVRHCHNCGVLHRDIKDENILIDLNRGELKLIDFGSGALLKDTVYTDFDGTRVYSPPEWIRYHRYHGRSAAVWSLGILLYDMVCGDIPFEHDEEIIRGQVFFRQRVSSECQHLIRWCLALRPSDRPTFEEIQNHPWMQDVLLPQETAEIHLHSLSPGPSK

TGF-beta receptor type-2 = TGF-beta receptor type-2 (Homo sapiens, UniProt P37173)
Chain of TGF-beta receptor type-2 (P37173 whole entry): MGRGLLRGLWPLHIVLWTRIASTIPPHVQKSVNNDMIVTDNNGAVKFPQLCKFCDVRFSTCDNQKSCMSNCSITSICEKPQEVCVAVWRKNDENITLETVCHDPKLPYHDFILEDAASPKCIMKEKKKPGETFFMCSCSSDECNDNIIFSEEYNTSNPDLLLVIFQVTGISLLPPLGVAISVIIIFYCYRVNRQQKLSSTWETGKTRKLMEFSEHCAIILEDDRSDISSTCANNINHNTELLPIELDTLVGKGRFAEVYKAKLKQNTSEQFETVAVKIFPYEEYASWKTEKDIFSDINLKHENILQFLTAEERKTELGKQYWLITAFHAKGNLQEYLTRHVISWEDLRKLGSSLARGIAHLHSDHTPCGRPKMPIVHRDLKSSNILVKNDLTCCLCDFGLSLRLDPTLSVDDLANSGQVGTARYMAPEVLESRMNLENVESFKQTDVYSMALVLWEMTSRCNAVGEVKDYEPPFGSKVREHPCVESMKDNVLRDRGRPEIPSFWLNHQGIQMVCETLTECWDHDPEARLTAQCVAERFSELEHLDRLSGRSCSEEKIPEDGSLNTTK

Obg-like ATPase 1 = Obg-like ATPase 1 (Homo sapiens, UniProt Q9NTK5)
Chain of Obg-like ATPase 1 (Q9NTK5 whole entry, looked up): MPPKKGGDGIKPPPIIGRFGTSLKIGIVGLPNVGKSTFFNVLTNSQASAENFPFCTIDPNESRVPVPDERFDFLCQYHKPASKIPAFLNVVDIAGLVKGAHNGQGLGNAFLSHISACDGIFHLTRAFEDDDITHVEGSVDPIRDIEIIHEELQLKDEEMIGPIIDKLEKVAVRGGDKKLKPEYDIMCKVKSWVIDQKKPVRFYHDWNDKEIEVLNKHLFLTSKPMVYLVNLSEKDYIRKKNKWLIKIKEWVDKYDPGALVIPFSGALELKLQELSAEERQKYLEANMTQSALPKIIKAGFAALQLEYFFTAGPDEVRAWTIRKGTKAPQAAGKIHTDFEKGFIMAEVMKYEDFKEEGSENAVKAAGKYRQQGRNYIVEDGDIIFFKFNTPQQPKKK

[8] = molecular target: Casein kinase II subunit alpha' (Homo sapiens, UniProt P19784)
Chain of Casein kinase II subunit alpha' (P19784 whole entry): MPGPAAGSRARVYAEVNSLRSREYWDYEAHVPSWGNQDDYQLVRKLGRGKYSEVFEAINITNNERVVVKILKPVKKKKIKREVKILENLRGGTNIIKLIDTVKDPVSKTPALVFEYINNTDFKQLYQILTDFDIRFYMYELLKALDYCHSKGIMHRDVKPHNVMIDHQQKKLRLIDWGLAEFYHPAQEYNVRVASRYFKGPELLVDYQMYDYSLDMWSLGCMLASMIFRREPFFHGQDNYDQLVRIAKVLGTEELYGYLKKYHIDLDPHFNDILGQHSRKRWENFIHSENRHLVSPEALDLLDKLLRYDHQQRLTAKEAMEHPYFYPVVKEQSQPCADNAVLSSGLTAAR
Further: in the data inactive means no Kd found up to 30 µM.

Chain of Serine/threonine-protein kinase 16 (O75716 whole entry): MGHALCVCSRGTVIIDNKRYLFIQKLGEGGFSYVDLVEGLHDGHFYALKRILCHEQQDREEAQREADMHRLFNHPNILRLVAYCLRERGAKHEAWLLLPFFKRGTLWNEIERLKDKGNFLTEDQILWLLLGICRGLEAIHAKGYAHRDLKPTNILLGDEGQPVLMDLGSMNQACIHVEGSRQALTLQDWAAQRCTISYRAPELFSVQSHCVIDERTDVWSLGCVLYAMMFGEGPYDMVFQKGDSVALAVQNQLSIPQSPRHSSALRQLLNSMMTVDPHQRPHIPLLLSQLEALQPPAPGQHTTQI
Chain of Casein kinase I isoform epsilon (P49674 whole entry, canonical isoform): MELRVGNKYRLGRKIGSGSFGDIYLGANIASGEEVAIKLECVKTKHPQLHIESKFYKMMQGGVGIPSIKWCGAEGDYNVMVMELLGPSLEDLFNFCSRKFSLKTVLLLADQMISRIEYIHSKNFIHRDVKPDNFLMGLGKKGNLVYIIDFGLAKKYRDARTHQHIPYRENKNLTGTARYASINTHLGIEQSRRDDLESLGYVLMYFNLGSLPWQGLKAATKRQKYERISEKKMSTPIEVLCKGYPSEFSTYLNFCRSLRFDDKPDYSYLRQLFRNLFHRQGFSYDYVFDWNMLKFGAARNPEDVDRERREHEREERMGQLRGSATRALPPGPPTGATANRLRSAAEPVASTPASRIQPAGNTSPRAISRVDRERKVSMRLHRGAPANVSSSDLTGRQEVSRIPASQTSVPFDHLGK
Chain of Activin receptor type-2B (Q13705 whole entry): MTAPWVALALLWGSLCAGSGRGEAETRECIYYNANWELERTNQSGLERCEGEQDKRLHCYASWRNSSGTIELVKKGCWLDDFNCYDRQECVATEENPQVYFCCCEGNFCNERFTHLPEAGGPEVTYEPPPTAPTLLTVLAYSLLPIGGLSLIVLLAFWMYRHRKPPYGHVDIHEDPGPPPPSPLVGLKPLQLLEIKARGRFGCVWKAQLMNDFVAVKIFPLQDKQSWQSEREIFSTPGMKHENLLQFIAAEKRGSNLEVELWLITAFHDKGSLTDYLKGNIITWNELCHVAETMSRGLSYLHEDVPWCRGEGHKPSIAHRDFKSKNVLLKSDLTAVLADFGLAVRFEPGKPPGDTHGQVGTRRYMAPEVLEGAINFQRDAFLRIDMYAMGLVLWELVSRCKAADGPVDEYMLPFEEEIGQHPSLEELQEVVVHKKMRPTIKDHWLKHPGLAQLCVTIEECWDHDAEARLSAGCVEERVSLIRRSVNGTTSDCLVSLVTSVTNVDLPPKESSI

| Structure (SMILES) | Kd [1] | Kd [2] | Kd (Activin receptor type-2B) | Kd [3] | Kd [5] | Kd (Scaffold protein ILK) | Kd [6] | Kd [7] | Kd (TGF-beta receptor type-2) | Kd (Obg-like ATPase 1) | Kd [8] | Kd [4] |
| --- | --- | --- | --- | --- | --- | --- | --- | --- | --- | --- | --- | --- |
| CCNC(=O)C#Cc1ccc2c(c1)NC(=O)/C2=C(\Nc1ccc(CN(C)C)cc1)c1ccccc1 | > 30 µM (inactive) | > 30 µM (inactive) | > 30 µM (inactive) | > 30 µM (inactive) | > 30 µM (inactive) | > 30 µM (inactive) | > 30 µM (inactive) | > 30 µM (inactive) | > 30 µM (inactive) | > 30 µM (inactive) | > 30 µM (inactive) | > 30 µM (inactive) |
| C=CC(=O)N1CCC[C@H](n2c(=O)n(-c3ccc(Oc4ccccc4)cc3)c3c(N)ncnc32)C1 | > 30 µM (inactive) | > 30 µM (inactive) | > 30 µM (inactive) | > 30 µM (inactive) | > 30 µM (inactive) | > 30 µM (inactive) | > 30 µM (inactive) | > 30 µM (inactive) | > 30 µM (inactive) | > 30 µM (inactive) | > 30 µM (inactive) | > 30 µM (inactive) |
| Cc1nc2cc(-c3nn(C(C)C)c4ncnc(N)c34)ccc2o1 | 0.158 µM (active) | 2.01 µM (active) | 0.901 µM (active) | > 30 µM (inactive) | > 30 µM (inactive) | > 30 µM (inactive) | > 30 µM (inactive) | > 30 µM (inactive) | > 30 µM (inactive) | > 30 µM (inactive) | > 30 µM (inactive) | > 30 µM (inactive) |
| COCc1c(-c2ccc(NC(=O)Nc3cc(C(F)(F)F)ccc3F)c(F)c2)c2c(N)ncnn2c1CN1CCOCC1 | > 30 µM (inactive) | > 30 µM (inactive) | > 30 µM (inactive) | > 30 µM (inactive) | > 30 µM (inactive) | > 30 µM (inactive) | > 30 µM (inactive) | > 30 µM (inactive) | > 30 µM (inactive) | > 30 µM (inactive) | > 30 µM (inactive) | > 30 µM (inactive) |
| C=CC(=O)Nc1cc2c(Nc3ccc(F)c(Cl)c3)ncnc2cc1C#CC(C)(C)N1CCN(C)CC1 [AV-412 FREE BASE] | > 30 µM (inactive) | > 30 µM (inactive) | > 30 µM (inactive) | > 30 µM (inactive) | > 30 µM (inactive) | > 30 µM (inactive) | > 30 µM (inactive) | > 30 µM (inactive) | > 30 µM (inactive) | > 30 µM (inactive) | > 30 µM (inactive) | > 30 µM (inactive) |
| COc1cc([C@@H]2c3cc4c(cc3[C@H](O)[C@H]3COC(=O)[C@@H]23)OCO4)cc(OC)c1OC [AXL-1717] | > 30 µM (inactive) | > 30 µM (inactive) | > 30 µM (inactive) | > 30 µM (inactive) | > 30 µM (inactive) | > 30 µM (inactive) | > 30 µM (inactive) | > 30 µM (inactive) | > 30 µM (inactive) | > 30 µM (inactive) | > 30 µM (inactive) | > 30 µM (inactive) |
| NC(=O)Nc1cc(-c2cccc(F)c2)sc1C(=O)N[C@H]1CCCNC1 [AZD-7762] | > 30 µM (inactive) | > 30 µM (inactive) | 0.253 µM (active) | > 30 µM (inactive) | 3.1 µM (active) | > 30 µM (inactive) | > 30 µM (inactive) | > 30 µM (inactive) | > 30 µM (inactive) | > 30 µM (inactive) | 3.15 µM (active) | > 30 µM (inactive) |
| Cn1cnc2c(F)c(Nc3ccc(Br)cc3F)c(C(=O)NOCCO)cc21 [BINIMETINIB] | > 30 µM (inactive) | > 30 µM (inactive) | > 30 µM (inactive) | > 30 µM (inactive) | > 30 µM (inactive) | > 30 µM (inactive) | > 30 µM (inactive) | > 30 µM (inactive) | > 30 µM (inactive) | > 30 µM (inactive) | > 30 µM (inactive) | > 30 µM (inactive) |
| COc1c(OCCCN2CCOCC2)ccc2c1N=C(NC(=O)c1cnc(N)nc1)N1CCN=C21 [COPANLISIB] | > 30 µM (inactive) | > 30 µM (inactive) | > 30 µM (inactive) | > 30 µM (inactive) | > 30 µM (inactive) | > 30 µM (inactive) | > 30 µM (inactive) | > 30 µM (inactive) | > 30 µM (inactive) | > 30 µM (inactive) | > 30 µM (inactive) | > 30 µM (inactive) |

The next lines start with results.

| Kd [1] | Kd [2] | Kd (Activin receptor type-2B) | Kd [3] | Kd [5] | Kd (Scaffold protein ILK) | Kd [6] | Kd [7] | Kd (TGF-beta receptor type-2) | Kd (Obg-like ATPase 1) | Kd [8] | Structure (SMILES) | Kd [4] |
| --- | --- | --- | --- | --- | --- | --- | --- | --- | --- | --- | --- | --- |
| > 30 µM (inactive) | > 30 µM (inactive) | > 30 µM (inactive) | > 30 µM (inactive) | > 30 µM (inactive) | > 30 µM (inactive) | > 30 µM (inactive) | > 30 µM (inactive) | > 30 µM (inactive) | > 30 µM (inactive) | > 30 µM (inactive) | Cc1cc(C(=O)NOCCO)c(Nc2ccc(I)cc2F)n(C)c1=O [AZD-8330] | > 30 µM (inactive) |
| > 30 µM (inactive) | > 30 µM (inactive) | > 30 µM (inactive) | > 30 µM (inactive) | > 30 µM (inactive) | > 30 µM (inactive) | > 30 µM (inactive) | > 30 µM (inactive) | > 30 µM (inactive) | > 30 µM (inactive) | > 30 µM (inactive) | CCn1c(C(=O)N(C2CC2)C2CC2)cc2c3c(ncn3C)c(Nc3cc(C)n(C)n3)nc21 [BMS-911543] | > 30 µM (inactive) |
| > 30 µM (inactive) | > 30 µM (inactive) | > 30 µM (inactive) | > 30 µM (inactive) | > 30 µM (inactive) | > 30 µM (inactive) | > 30 µM (inactive) | > 30 µM (inactive) | > 30 µM (inactive) | > 30 µM (inactive) | > 30 µM (inactive) | COc1cc2ncnc(Oc3cccc(NC(=O)Nc4cc(C(C)(C)C(F)(F)F)on4)c3)c2cc1OC [CEP-32496] | > 30 µM (inactive) |

Source: ChEMBL document CHEMBL3991601, “The target landscape of clinical kinase drugs” (Science, 2017)
